The IC50 is the concentration at which inhibition is half-maximal.

Sequence of [Pyruvate dehydrogenase (acetyl-transferring)] kinase isozyme 1, mitochondrial (Q15118 whole entry): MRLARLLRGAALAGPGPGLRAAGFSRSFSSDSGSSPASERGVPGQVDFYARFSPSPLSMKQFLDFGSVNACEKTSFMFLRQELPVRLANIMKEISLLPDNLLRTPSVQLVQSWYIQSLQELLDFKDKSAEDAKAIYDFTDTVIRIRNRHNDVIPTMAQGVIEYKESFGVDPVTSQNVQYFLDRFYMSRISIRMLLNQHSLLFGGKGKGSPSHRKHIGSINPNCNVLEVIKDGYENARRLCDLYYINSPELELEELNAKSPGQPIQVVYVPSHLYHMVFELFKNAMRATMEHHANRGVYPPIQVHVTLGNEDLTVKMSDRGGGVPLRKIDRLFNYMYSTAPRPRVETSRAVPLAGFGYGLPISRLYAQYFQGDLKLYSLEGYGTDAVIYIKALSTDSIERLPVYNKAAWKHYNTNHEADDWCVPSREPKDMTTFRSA

This experiment has as its target [Pyruvate dehydrogenase (acetyl-transferring)] kinase isozyme 1, mitochondrial (Homo sapiens, UniProt Q15118). Description: Binding affinity to pyruvate dehydrogenase kinase 1 (unknown origin) incubated for 90 mins by VER-00160364 probe based fluorescence polarization assay.
Molecule `Cc1cnc(C)c(-c2ccc(N(Cc3ccccc3)C(=O)c3ccc(O)cc3O)cc2)n1` displayed an IC50 of 100 nM.
The value for `Cc1cc2[nH]c(=O)[nH]c2cc1-c1ccc(N(Cc2ccccc2)C(=O)c2ccc(O)cc2O)cc1` was 10000 nM; that for `O=C(c1ccc(O)cc1O)N(Cc1ccccc1)c1ccc(-c2ccccc2Cl)cc1` was 10 nM.
`CCc1nccnc1-c1ccc(N(Cc2ccccc2)C(=O)c2ccc(O)cc2O)cc1` registered an IC50 of 100 nM.
Consider `Cc1cc2ccccc2nc1-c1ccc(N(Cc2ccc(-c3ccccc3)cc2)C(=O)c2ccc(O)cc2O)cc1`, for which the IC50 stood at 100 nM.
Regarding `Cc1c(Cl)nc(Cl)nc1-c1ccc(N(Cc2ccccc2)C(=O)c2ccc(O)cc2O)cc1`, the IC50 was found to be 1000 nM.
`COc1ccc2nc(-c3ccc(N(Cc4ccccc4)C(=O)c4ccc(O)cc4O)cc3)c(C)cc2c1` showed an IC50 of 100 nM.
The value for `CCCc1cncnc1-c1ccc(N(Cc2ccccc2)C(=O)c2ccc(O)cc2O)cc1` was 1000 nM; that for `O=C(c1ccc(O)cc1O)N(Cc1ccccc1)c1ccc(-c2nc3ccccc3nc2C(F)(F)F)cc1` was 1000 nM; that for `Cc1ccc(C)c(-c2ccc(N(Cc3ccccc3)C(=O)c3ccc(O)cc3O)cc2)n1` was 10 nM.
The value for `Cc1c(-c2ccc(N(Cc3ccccc3)C(=O)c3ccc(O)cc3O)cc2)ccc2c1NC(=O)C2=O` was 1000 nM; that for `Cc1c(-c2ccc(N(Cc3ccccc3)C(=O)c3ccc(O)cc3O)cc2)ccc2[nH]ncc12` was 1000 nM.
In the case of `Cc1cn(-c2ccc(-c3ccc(N(Cc4ccccc4)C(=O)c4ccc(O)cc4O)cc3)nn2)cn1`, the IC50 was determined as 1000 nM.
To `Cc1nc(C(F)(F)F)nc(-c2ccc(N(Cc3ccccc3)C(=O)c3ccc(O)cc3O)cc2)c1C` belongs 1000 nM; to `O=C(c1ccc(O)cc1O)N(Cc1ccccc1)c1ccc(-c2ccc(N3CCOCC3)nn2)cc1`, 1000 nM; to `Cc1cnc(C#N)nc1-c1ccc(N(Cc2ccccc2)C(=O)c2ccc(O)cc2O)cc1`, 100 nM.
The value for `O=C(c1ccc(O)cc1O)N(Cc1ccccc1)c1ccc(-c2nc(Cl)nc3[nH]ccc23)cc1` was 1000 nM.
The value for `O=C(c1ccc(O)cc1O)N(Cc1ccccc1)c1ccc(-c2nncc3ccccc23)cc1` was 1000 nM; that for `Cc1cc(N(Cc2ccccc2)C(=O)c2ccc(O)cc2O)ccc1-c1nc(Cl)ncc1C` was 1000 nM; that for `O=C(c1ccc(O)cc1O)N(Cc1ccccc1)c1ccc(-c2nc(Cl)nc3c2COCC3)cc1` was 1000 nM.
Regarding `CN(Cc1ccc2ccccc2c1)C(=O)c1ccc(N(Cc2ccccc2)C(=O)c2ccc(O)cc2O)cc1`, the IC50 was 10000 nM.
To `Cc1cc(-c2ccc(N(Cc3ccccc3)C(=O)c3ccc(O)cc3O)cc2)nnc1Cl` belongs 10000 nM.
`NC(=O)c1nc(-c2ccc(N(Cc3ccccc3)C(=O)c3ccc(O)cc3O)cc2)c2ccccc2n1` had an IC50 of 10000 nM.
To `Cc1nc(-c2ccc(N(Cc3ccccc3)C(=O)c3ccc(O)cc3O)cc2)c2ccccc2n1` belongs 1000 nM; to `CN(Cc1cccc2cnccc12)C(=O)c1ccc(N(Cc2ccccc2)C(=O)c2ccc(O)cc2O)cc1`, 100 nM; to `Cc1cccnc1-c1ccc(N(Cc2ccccc2)C(=O)c2ccc(O)cc2O)cc1`, 1000 nM.
To `Nc1ccc(-c2ccc(N(Cc3ccccc3)C(=O)c3ccc(O)cc3O)cc2)nn1` belongs 100 nM; to `Cc1cnc(Cl)nc1-c1ccc(N(Cc2cccc(Cn3ccnc3)c2)C(=O)c2cc(Cl)c(O)cc2O)cc1`, 10 nM.
For the molecule `C#Cc1ncc(C)c(-c2ccc(N(Cc3ccccc3)C(=O)c3ccc(O)cc3O)cc2)n1`, the half-inhibitory concentration (IC50) was 1000 nM.
The molecule `Cc1ncc(C)c(-c2ccc(N(Cc3ccccc3)C(=O)c3cc(Cl)c(O)cc3O)cc2)n1` registered an IC50 of 100 nM.
`O=C(c1ccc(O)cc1O)N(Cc1ccccc1)c1ccc(-c2cnc3ccccc3n2)cc1` had an IC50 of 10000 nM.
To `CNc1nccc(-c2ccc(N(Cc3ccccc3)C(=O)c3ccc(O)cc3O)cc2)n1` belongs 10000 nM; to `O=C(c1ccc(O)cc1O)N(Cc1ccccc1)c1ccc(-c2nc3ccc(Cl)cc3cc2CO)cc1`, 1000 nM; to `Cc1nccnc1-c1ccc(N(Cc2ccccc2)C(=O)c2ccc(O)cc2O)cc1`, 1000 nM.
The value for `Cc1cccnc1-c1ccc(N(Cc2ccccc2)C(=O)c2cc(Cl)c(O)cc2O)cc1` was 1000 nM; that for `O=C(c1ccc(O)cc1O)N(Cc1ccccc1)c1ccc(-c2ncnc3ccc(Cl)cc23)cc1` was 100 nM; that for `Cc1cnc(Cl)nc1-c1ccc(N(Cc2ccc(C#N)cc2)C(=O)c2ccc(O)cc2O)cc1` was 100 nM.
The value for `O=C(c1ccc(O)cc1O)N(Cc1ccccc1)c1ccc(-c2ccc(NC3CC3)nn2)cc1` was 100 nM; that for `O=C(c1ccc(O)cc1O)N(Cc1ccccc1)c1ccc(-c2nc3ccccc3cc2CO)cc1` was 10000 nM; that for `O=C(c1ccc(O)cc1O)N(Cc1ccccc1)c1ccccc1` was 1000 nM.
`COc1cnc(Cl)nc1-c1ccc(N(Cc2ccccc2)C(=O)c2ccc(O)cc2O)cc1C` had an IC50 of 1000 nM.
In the case of `Cc1cnc(-c2cccnc2)nc1-c1ccc(N(Cc2ccccc2)C(=O)c2ccc(O)cc2O)cc1`, the IC50 was determined as 1000 nM.
The value for `Cc1cncnc1-c1ccc(N(Cc2ccccc2)C(=O)c2ccc(O)cc2O)cc1` was 100 nM; that for `O=C(c1ccc(O)cc1O)N(Cc1ccccc1)c1ccc(-c2ccc(N3CCCC3)nn2)cc1` was 1000 nM.
Turning to `Cc1cnc(N(C)C)nc1-c1ccc(N(Cc2ccccc2)C(=O)c2ccc(O)cc2O)cc1`, the half-inhibitory concentration (IC50) turned out to be 100 nM.
The value for `CCOC(=O)c1nc(C)nc(-c2ccc(N(Cc3ccccc3)C(=O)c3ccc(O)cc3O)cc2)c1C` was 10000 nM; that for `CCOC(=O)c1nc(-c2ccc(N(Cc3ccccc3)C(=O)c3ccc(O)cc3O)cc2)c2ccccc2n1` was 10000 nM; that for `Cc1nccnc1-c1ccc(N(Cc2ccccc2)C(=O)c2ccc(O)cc2O)cc1F` was 1000 nM.
As for `Cc1cc(N)ncc1-c1ccc(N(Cc2ccccc2)C(=O)c2ccc(O)cc2O)cc1`, the IC50 is 1000 nM.
Molecule `COc1cnc(Cl)nc1-c1ccc(N(Cc2ccccc2)C(=O)c2ccc(O)cc2O)cc1` yielded an IC50 of 100 nM.
In the case of `Cc1cc(Cl)nnc1-c1ccc(N(Cc2ccccc2)C(=O)c2ccc(O)cc2O)cc1`, the IC50 is 100 nM.
In turn, `Cc1cc(N(Cc2ccccc2)C(=O)c2ccc(O)cc2O)ccc1-c1nc2cc(F)ccc2cc1C` showed a 50% inhibitory concentration (IC50) of 100 nM.
The value for `Cc1cnc(NC(C)C)nc1-c1ccc(N(Cc2ccccc2)C(=O)c2ccc(O)cc2O)cc1` was 10000 nM.
As for `Cc1cnc(Cl)nc1-c1ccc(N(C(=O)c2ccc(O)cc2O)C(C)c2ccccc2)cc1` (stereo not drawn), the IC50 stood at 1000 nM.
The value for `Cn1ccnc1-c1ccc(N(Cc2ccccc2)C(=O)c2ccc(O)cc2O)cc1` was 1000 nM; that for `Cc1cnc(Cl)nc1-c1ccc(N(Cc2ccccc2)C(=O)c2cc(Cl)c(O)cc2O)cc1` was 10 nM.
On to `O=C(c1ccc(O)cc1O)N(Cc1ccccc1)c1ccc(-c2nc(-c3ccsc3)nc3ccccc23)cc1`, for which the IC50 came out at 100 nM.
With `O=C(c1ccc(O)cc1O)N(Cc1ccccc1)c1ccc(-c2nc(-c3ccccc3)nc3ccccc23)cc1`, the IC50 was found to be 100 nM.
The value for `Cc1ncc(C)c(-c2ccc(N(Cc3ccccc3)C(=O)c3ccc(O)cc3O)cc2)n1` was 100 nM; that for `CN(Cc1cccc2ncccc12)C(=O)c1ccc(N(Cc2ccccc2)C(=O)c2ccc(O)cc2O)cc1` was 100 nM.
In turn, `N#Cc1cncnc1-c1ccc(N(Cc2ccccc2)C(=O)c2ccc(O)cc2O)cc1` came in with a 50% inhibitory concentration (IC50) of 1000 nM.
In turn, `Cc1nc(N)ccc1-c1ccc(N(Cc2ccccc2)C(=O)c2ccc(O)cc2O)cc1` gave an IC50 of 1000 nM.
In turn, `O=C(c1ccc(O)cc1O)N(Cc1ccccc1)c1ccc(-c2ccc(-n3ccnc3)nn2)cc1` returned an IC50 of 100 nM.
The value for `Cc1cnc(Cl)nc1-c1ccc(N(C(=O)c2ccc(O)cc2O)[C@H](C)c2ccccc2)cc1` was 100 nM.
The value for `Cc1ccnnc1-c1ccc(N(Cc2ccccc2)C(=O)c2ccc(O)cc2O)cc1` was 100 nM; that for `Cc1cnc(-c2ccccc2)nc1-c1ccc(N(Cc2ccccc2)C(=O)c2ccc(O)cc2O)cc1` was 1000 nM.
The value for `Cc1cc2ccccc2nc1-c1ccc(N(Cc2ccccc2)C(=O)c2cc(Cl)c(O)cc2O)cc1` was 1000 nM.
For the molecule `Cc1cnc(Cl)nc1-c1ccc(N(Cc2ccccc2)C(=O)c2ccc(O)cc2O)cc1F`, the IC50 came out at 100 nM.
In turn, `O=C(O)c1nc(-c2ccc(N(Cc3ccccc3)C(=O)c3ccc(O)cc3O)cc2)c2ccccc2n1` displayed an IC50 of 1000 nM.
Molecule `Cc1nc(-c2ccc(N(Cc3ccccc3)C(=O)c3ccc(O)cc3O)cc2C)c2ccccc2n1` registered an IC50 of 100 nM.
To `CCc1cnc(C)nc1-c1ccc(N(Cc2ccccc2)C(=O)c2ccc(O)cc2O)cc1` belongs 100 nM; to `Cc1cnc(Cl)nc1-c1ccc(N(Cc2ccccc2)C(=O)c2ccc(O)cc2O)cc1`, 10 nM; to `O=C(c1ccc(O)cc1O)N(Cc1ccccc1)c1ccc(-c2ncnc3ccsc23)cc1`, 10000 nM.
The value for `Cc1nccn1-c1ccc(-c2ccc(N(Cc3ccccc3)C(=O)c3ccc(O)cc3O)cc2)nn1` was 10 nM; that for `CSc1nc(-c2ccc(N(Cc3ccccc3)C(=O)c3ccc(O)cc3O)cc2)c2cc[nH]c2n1` was 1000 nM.
The value for `O=C(c1ccc(O)cc1O)N(Cc1ccccc1)c1ccc(-c2ncnc3cccc(F)c23)cc1` was 1000 nM; that for `Cc1ccc(CN(C(=O)c2ccc(O)cc2O)c2ccc(-c3nc(C)ncc3C)cc2)cc1` was 10 nM.
`Cc1cc2ccc(F)cc2nc1-c1ccc(N(Cc2ccccc2)C(=O)c2ccc(O)cc2O)cc1F` gave an IC50 of 100 nM.
To `Cc1cnc(-c2cccc(F)c2)nc1-c1ccc(N(Cc2ccccc2)C(=O)c2ccc(O)cc2O)cc1` belongs 1000 nM; to `CN(Cc1cccc2ccccc12)C(=O)c1ccc(N(Cc2ccccc2)C(=O)c2ccc(O)cc2O)cc1`, 1000 nM; to `Cc1cc(N)cnc1-c1ccc(N(Cc2ccccc2)C(=O)c2ccc(O)cc2O)cc1`, 100 nM.
The value for `O=C(c1ccc(O)cc1O)N(Cc1ccccc1)c1ccc(-c2ncccc2CO)cc1` was 1000 nM; that for `O=C(c1ccc(O)cc1O)N(Cc1ccccc1)c1ccc(-c2nc(Cl)nc3ccsc23)cc1` was 10000 nM.

The values above are taken from ChEMBL document CHEMBL3727364, “Resorcinol n-aryl amide compounds, for use as pyruvate dehydrogenase kinase inhibitors” (2015).
